Results: PubChem BioAssay (NCI)
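These data come from cells grown in 96-well plates and exposed to compound for 48 hours at five concentrations. At the GI50, growth is halved. The concentration for full growth arrest is given as TGI.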

What follows are compounds tested on HOP-92 NSCLC (assay: NCI anticancer screen, dose series, 48 h).
`COc1cc(/C=C/c2cc(/C=C/c3ccc(O)c(OC)c3)n(C(=O)Nc3ccc(F)c(Cl)c3)n2)ccc1O` was tested, and the GI50 was 1.03 µM and the TGI was 5.89 µM.
Compound `CC(=O)[O-].CCN(CC)c1ccc(C=NCCN=Cc2ccc(N(CC)CC)cc2[O-])c([O-])c1.[Mn+3]` has a GI50 of 38.3 µM and a TGI of 93.9 µM.
With `Clc1ccc(C2=Nn3c(COc4ccccc4Cl)nnc3SC2)c(Cl)c1` the GI50 was 39 µM and the TGI was > 100 µM.
Compound `COc1cc2nc3cc([N+](=O)[O-])ccc3c(NCCCNCCO)c2cc1OC` has a GI50 of 0.148 µM and a TGI of 0.438 µM.
For `CC1(C)C(=O)N(CCCCCCN2C(=O)C(C)(C)c3ccccc32)c2ccccc21`, the TGI was > 100 µM.
For `CCOC(=O)c1c(C)n(Cc2ccc(Cl)cc2Cl)c2c1c(CN(C)C)c(O)c1[nH]cnc12`, the GI50 was 2.74 µM and the TGI was 13.3 µM.
Compound `C[C@@]12CC=C3c4nc(Nc5cccc(O)c5)sc4CC[C@]3(C)[C@H]1CC[C@]1(C)C(=O)CC[C@@H]21` has a GI50 of 1.93 µM and a TGI of 5.32 µM.
For `CN1C(=O)c2cccc3cc([N+](=O)[O-])cc(c23)C1=O`, the TGI was > 10 µM.
For `Oc1ccccc1C(Sc1nc2ccccc2s1)Sc1nc2ccccc2s1`, the TGI was 95 µM.
For `c1ccc(CNn2nnc3ccccc32)cc1`, the TGI was > 100 µM.

What follows are compounds tested on KM12 colon (assay: NCI anticancer screen, dose series, 48 h).
With `COc1cc(C(C)O)c[n+](CCc2c[nH]c3ccccc23)c1` (configuration not stated) the TGI was > 100 µM.
`CC1(C)SCc2nc3ncccc3n21` was tested, and the TGI was > 100 µM.
With `Cc1cn(C2CC(O)C(CO)O2)c(=O)n2nnnc12` (configuration not stated) the TGI was > 100 µM.
`COc1ccc(C(=O)C(C(=O)CCC(=O)Nc2cccc(Cl)c2)c2ccc(OC)cc2)cc1` (configuration not stated) was tested, and the TGI was > 100 µM.
`Cc1cc(C(=O)Nc2ncc(Cc3cccc(C(F)(F)F)c3)s2)c2ccccc2n1` was tested, and the GI50 was 0.498 µM and the TGI was > 100 µM.
`Cc1ccc(C2=C(c3ccccc3)C(Br)(c3ccc(C)cc3)C(c3ccccc3)=C2c2ccc(C)cc2)cc1` was tested, and the TGI was > 100 µM.
In the case of `O=C(N/N=C/c1ccc(Cl)cc1)c1ccc(C(F)(F)F)nc1Nc1cccc(C(F)(F)F)c1`, the GI50 is reported as 2.31 µM and the TGI is reported as 8.4 µM.
With `COc1cc2ncnc(Nc3ccc(C)c(O)c3)c2cc1OC` the GI50 was > 25 µM and the TGI was > 25 µM.
With `N#CCN1C(=O)c2cccc3cc([N+](=O)[O-])cc(c23)C1=O` the TGI was > 100 µM.
`O=C1CCN2C(=O)CCN12` was tested, and the TGI was > 100 µM.
With `Cc1cc(S(=O)(=O)Nc2nnc(-c3ccccc3)c(-c3ccccc3)n2)c(SCC(N)=O)cc1Cl` the GI50 was 37 µM and the TGI was > 100 µM.
In the case of `COc1ccc(/C=C/c2ccnc3ccccc23)c(OC)c1`, the TGI is reported as > 10 µM.
`Clc1nc(Cl)c(Cl)c(-c2ccccc2)n1` showed a TGI of 18 µM.
`CC1CC[C@]2(C(=O)O)CCC3(C)C(=CC(=O)C4[C@@]5(C)CCC(=O)C(C)(C)C5CC[C@]43C)[C@@H]2[C@H]1C` (some centres not stated) showed a TGI of 56.1 µM.
`CC(=O)CSCc1ccccn1` was tested, and the TGI was > 100 µM.
`COc1ccccc1CNCCCN1C(=O)c2ccc3c4c(ccc(c24)C1=O)C(=O)N(CCCOCCCCOCCCN)C3=O` gave a GI50 of 1.26 µM and a TGI of 2.79 µM.
For `CC(C)(C)c1ccc2c(c1)S(=O)(=O)Nc1ccccc1NS(=O)(=O)c1cc(C(C)(C)C)ccc1OCCOCCOCCO2`, the TGI was > 100 µM.
Work on `COc1cc(/C=C/c2cc(/C=C/c3ccc(O)c(OC)c3)n(C(=O)Nc3ccc(F)c(Cl)c3)n2)ccc1O` yielded a GI50 of 0.31 µM and a TGI of 1.15 µM.
In the case of `CC(=O)[O-].CCN(CC)c1ccc(C=NCCN=Cc2ccc(N(CC)CC)cc2[O-])c([O-])c1.[Mn+3]`, the GI50 is reported as 17.8 µM and the TGI is reported as 33.7 µM.
Compound `Clc1ccc(C2=Nn3c(COc4ccccc4Cl)nnc3SC2)c(Cl)c1` has a GI50 of 16.9 µM and a TGI of 34 µM.
Compound `COc1cc2nc3cc([N+](=O)[O-])ccc3c(NCCCNCCO)c2cc1OC` has a GI50 of 0.285 µM and a TGI of 0.843 µM.
For `CC1(C)C(=O)N(CCCCCCN2C(=O)C(C)(C)c3ccccc32)c2ccccc21`, the TGI was > 100 µM.
`CCOC(=O)c1c(C)n(Cc2ccc(Cl)cc2Cl)c2c1c(CN(C)C)c(O)c1[nH]cnc12` gave a GI50 of 17.8 µM and a TGI of 35.8 µM.
`CN1C(=O)c2cccc3cc([N+](=O)[O-])cc(c23)C1=O` was tested, and the TGI was > 10 µM.
`Oc1ccccc1C(Sc1nc2ccccc2s1)Sc1nc2ccccc2s1` was tested, and the TGI was > 100 µM.
With `Cc1cccc(NC(=O)/C(=N\NC(C)(C)C)C2NC(=S)NC2=O)c1C` (configuration not stated) the TGI was > 100 µM.
With `c1ccc(CNn2nnc3ccccc32)cc1` the TGI was > 100 µM.

What follows are compounds tested on OVCAR-5 ovarian (assay: NCI anticancer screen, dose series, 48 h).
`CC1(C)SCc2nc3ncccc3n21` was tested, and the TGI was > 100 µM.
`Cc1cn(C2CC(O)C(CO)O2)c(=O)n2nnnc12` (configuration not stated) was tested, and the TGI was > 100 µM.
In the case of `COc1ccc(C(=O)C(C(=O)CCC(=O)Nc2cccc(Cl)c2)c2ccc(OC)cc2)cc1` (configuration not stated), the TGI is reported as > 100 µM.
For `Cc1ccc(C2=C(c3ccccc3)C(Br)(c3ccc(C)cc3)C(c3ccccc3)=C2c2ccc(C)cc2)cc1`, the TGI was > 100 µM.
Work on `O=C(N/N=C/c1ccc(Cl)cc1)c1ccc(C(F)(F)F)nc1Nc1cccc(C(F)(F)F)c1` yielded a GI50 of 3.2 µM and a TGI of 13.7 µM.
For `COc1cc2ncnc(Nc3ccc(C)c(O)c3)c2cc1OC`, the GI50 was 16.2 µM and the TGI was > 25 µM.
With `N#CCN1C(=O)c2cccc3cc([N+](=O)[O-])cc(c23)C1=O` the TGI was > 100 µM.
For `O=C1CCN2C(=O)CCN12`, the TGI was > 100 µM.
In the case of `Cc1cc(S(=O)(=O)Nc2nnc(-c3ccccc3)c(-c3ccccc3)n2)c(SCC(N)=O)cc1Cl`, the GI50 is reported as > 100 µM and the TGI is reported as > 100 µM.
In the case of `COc1ccc(/C=C/c2ccnc3ccccc23)c(OC)c1`, the TGI is reported as > 10 µM.
Compound `Clc1nc(Cl)c(Cl)c(-c2ccccc2)n1` has a TGI of 42.1 µM.
In the case of `CC(=O)CSCc1ccccn1`, the TGI is reported as > 100 µM.
`COc1ccccc1CNCCCN1C(=O)c2ccc3c4c(ccc(c24)C1=O)C(=O)N(CCCOCCCCOCCCN)C3=O` gave a GI50 of 1.88 µM and a TGI of 3.61 µM.
For `CC(C)(C)c1ccc2c(c1)S(=O)(=O)Nc1ccccc1NS(=O)(=O)c1cc(C(C)(C)C)ccc1OCCOCCOCCO2`, the TGI was > 100 µM.
In the case of `COc1cc(/C=C/c2cc(/C=C/c3ccc(O)c(OC)c3)n(C(=O)Nc3ccc(F)c(Cl)c3)n2)ccc1O`, the GI50 is reported as 1.82 µM and the TGI is reported as 6.87 µM.
In the case of `CC(=O)[O-].CCN(CC)c1ccc(C=NCCN=Cc2ccc(N(CC)CC)cc2[O-])c([O-])c1.[Mn+3]`, the GI50 is reported as 21.3 µM and the TGI is reported as 41 µM.
With `Clc1ccc(C2=Nn3c(COc4ccccc4Cl)nnc3SC2)c(Cl)c1` the GI50 was 35.1 µM and the TGI was 87.1 µM.
For `COc1cc2nc3cc([N+](=O)[O-])ccc3c(NCCCNCCO)c2cc1OC`, the GI50 was 0.22 µM and the TGI was 0.899 µM.
With `CC1(C)C(=O)N(CCCCCCN2C(=O)C(C)(C)c3ccccc32)c2ccccc21` the TGI was > 100 µM.
`C[C@@]12CC=C3c4nc(Nc5cccc(O)c5)sc4CC[C@]3(C)[C@H]1CC[C@]1(C)C(=O)CC[C@@H]21` showed a GI50 of 2.58 µM and a TGI of 7.26 µM.
